# Results taken from US20230251277A1, “METHOD FOR DETERMINING THE LEVEL OF VITAMIN D AND METABOLITES THEREOF” (Roche Diagnostics Operations, Inc., priority 2020, published 2023).
# “Also recorded” adds a separate entry of the source.
# Experiments:
# physchem = settings: aqueous with cosolvent or surfactant or cyclodextrin
# [1] = target: T1, Vitamin D binding protein (Homo sapiens, UniProt P02774); test: Screening of releasing reagent candidates: recovery of Vitamin D metabolites from spiked native serum pool (immunobead capture, LC-MS/MS); type: biochemical; set-up: native serum pool and homogenized; from tissue; host or cells: native serum pool (spiked with vitamin D metabolites); settings: 45 µl pretreatment reagent at the concentration of the 1st table
# T1 sequence (P02774 17-474): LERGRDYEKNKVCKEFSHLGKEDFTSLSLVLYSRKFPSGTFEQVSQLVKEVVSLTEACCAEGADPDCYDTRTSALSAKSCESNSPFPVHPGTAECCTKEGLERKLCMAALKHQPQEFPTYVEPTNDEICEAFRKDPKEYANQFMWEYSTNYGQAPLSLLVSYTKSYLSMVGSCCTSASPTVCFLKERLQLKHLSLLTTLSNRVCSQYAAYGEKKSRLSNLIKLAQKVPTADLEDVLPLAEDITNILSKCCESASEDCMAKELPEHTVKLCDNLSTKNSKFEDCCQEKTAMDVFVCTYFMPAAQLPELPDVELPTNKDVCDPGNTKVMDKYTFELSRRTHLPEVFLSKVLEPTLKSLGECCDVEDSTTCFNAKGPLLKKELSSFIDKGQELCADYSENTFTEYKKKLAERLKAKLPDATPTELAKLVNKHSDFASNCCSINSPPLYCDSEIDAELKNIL
# Protocol: 0.30 ml di-OH Vitamin D stock solution ([…] 24R,25-di-OH Vitamin D3 and […] 24R,25-di-OH Vitamin D2 in methanol) and 0.55 ml mono-OH Vitamin D stock solution (10.00 µg/ml 25-OH Vitamin D3 and 10.00 µg/ml 25-OH Vitamin D2 in methanol) are added to 99.1 5 ml native serum pool and homogenized. Thus resulting concentrations in the spiked pool are: • 3.9 ng/ml 24R,25-di-OH Vitamin D3 • 6.0 ng/ml 24R,25-di-OH Vitamin D2 • 55.0 ng/ml 25-OH Vitamin D2 • 84.9 ng/ml 25-OH Vitamin D3 Endogenous amounts in the original native serum pool are taken into account.
# Molar concentrations of the evaluated chemicals are:
# 10 µl Vitamin D free serum (representing ISTD dummy) are pipetted to 145 µl sample in a plastic vessel. After incubation with periodic shaking for 231 s at 37° C., 45 µl pretreatment reagent are added. Again, an incubation with periodic shaking for 640 s at 37° C. takes place. Therefore Vitamin D should be or is gently released from Vitamin D binding protein. In the next step 50 µl immunobead suspension are pipetted to the mixture. Again, an incubation with periodic shaking for 393 s at 37℃ takes place. After twofold bead wash using 0.01 M PBS and magnetic separation, 60 µl of the elution reagent water/methanol 2/8 (v/v) are added and a 40 s incubation period takes place. It is possible to transfer 40 µl supernatant in a HPLC glass vial while 20 µl have to remain in the vessel to avoid the carry-over of beads into the supernatant. In the final step 40 µl internal standard working solution are added to the supernatant and homogenized by means of sip and spit pipetting technique.
# HPLC-MS/MS analysis is performed using a 1290 infinity Multisampler and a 1290 Inifinity LC System (Agilent Technologies, Santa Clara/USA) coupled to a Triple Quad 6500+ MS (Sciex, Darmstadt).
# 40 µl of each sample are injected on the analytical C18 column (50×2.1 mm, 2.6 µm, Hitachi, Tokio/Japan) in order to separate the analytes. This is realized with a flow rate of 1.0 ml/min and at a column temperature of 50° C. Separation of the analytes is achieved with the following gradient of 50 mM formic acid (A) and methanol (B): • 0.00 min: 80% […] • 0.70 min: 90% B • 0.75 min: 98% B • 1.70 min: 98% B • 1.80 min: 80% B • 2.40 min: 80% B
# The coupled MS detector is operating in positive electrospray ionisation (ESI) mode. The Vitamin D analytes are detected using multi reaction monitoring (MRM) technique. Doing this two periods are applied: 0.00-0.60 min for measurement of 24R,25-di-OH Vitamin D2/D3 and 0.60-2.40 min for the detection of 25-OH Vitamin
# Calibration is performed by means of LC-MS/MS of Vitamin D standards in solvent (60% MeOH) containing internal standards as concentrated as in the processed samples. For example, calibration levels for 25-OH Vitamin D3 are 2, 5, 10, 25, 50 and 100 ng/ml, while the concentration of 25-OH Vitamin D3 13C5 is set to 30 ng/ml.
# Due to the fact that internal standard concentrations are identical both in calibrators and processed samples, it is possible to calculate recoveries for each analyte with the formula: […]
# The results are shown in FIGS. 2 to 5 show the recovery of the releasing reagent candidates for 25-OH Vitamin D3 (FIG. 2), 25-OH Vitamin D2 (FIG. 3), 24R25-di-OH Vitamin D3 (FIG. 4) and 24R25-di-OH Vitamin D2 (FIG. 5).
# Each error bar in FIGS. 2 and 5 is constructed using the min and the max. of the data.
# [2] = Dynamic viscosity of the releasing reagent solution; type: physicochemical
# [3] = target: T1, Vitamin D binding protein; test: Pretreatment optimization (design of experiments): 25-OH Vitamin D3 area ratio / analyte recovery in serum, plasma, Vitamin D free serum
Compound,solubility (physchem),"recovery of Vitamin D metabolites (25-OH D3, 25-OH D2, 24R,25-di-OH D3, 24R,25-di-OH D2) ([1]; FIGS. 2 to 5)",also measured
"CC(=O)Oc1ccccc1C(=O)O [PT10, Aspirin, reference compound]",10 mM,–,–
"CCOC(=O)c1cc(OCC)ccc1O [PT19, Ethyl-5-ethoxy-2-hydroxybenzoate]",4 mM,–,–
"N.O=C(O)c1ccccc1O [PT2, Ammonium Salicylate]",5600 mM,Highest recoveries,–
"O=C(OCCO)c1ccccc1O [PT3, Ethylen glycol monosalicylate]",50 mM,–,–
"COC(=O)c1ccc(O)cc1 [PT14, Methyl-4-hydroxybenzoate]",–,Lowest recoveries,–
"O=C(Oc1ccccc1)c1ccccc1O [PT17, Phenyl Salicylate]",0.9 mM,–,–
"O=C(O)c1ccc(C(F)(F)F)cc1O [PT22, 2-Hydroxy-4-trifluoromethylbenzoic acid]",6 mM,–,–
"O=C(O)c1cc(-c2ccc(F)cc2F)ccc1O [PT18, Diflunisal, reference compound]",0.4 mM,–,–
"O=C(O)c1ccc(O)cc1O [PT7, 2,4-Dihydroxybenzoic acid]",50 mM,Highest recoveries,–
"O=C([O-])c1cccc(O)c1.[Na+] [PT20, 3-Hydroxybenzoic acid sodium salt]",2800 mM,Highest recoveries,–
"O=C(O)c1cc(/N=N/c2ccc(S(=O)(=O)Nc3ccccn3)cc2)ccc1O [PT11, Sulfasalazine, reference compound]",9 mM,–,–
"Cc1cccc(C(=O)O)c1O [PT15, 3-Methylsalicylic acid]",10 mM,–,–
"O=C(O)c1ccc(O)c(C(=O)O)c1 [PT4, 4-Hydroxyisophthalic acid]",1 mM,–,–
"Cc1ccc(O)c(C(=O)O)c1 [PT13, 2-Hydroxy-5-methylbenzoic acid]",10 mM,–,–
"O=C(O)c1ccccc1O [PT12, Salicylic acid, reference compound]",30 mM,–,–
"COC(=O)c1ccccc1O [PT16, Methyl Salicylate, reference compound]",10 mM,–,–
"COc1ccccc1C(=O)O [PT9, 2-Methoxy-benzoic acid]",30 mM,–,–
"Cc1ccc(C(=O)O)c(O)c1 [PT6, 4-Methylsalicylic acid]",20 mM,–,–
"O=C([O-])c1ccccc1O.[Na+] [PT1, Sodium Salicylate, reference compound]",5600 mM,Highest recoveries,"dynamic viscosity ([2]; at 6° C. for 5.6 M solution in 0.01 M PBS/methanol 9/1): 23 mPas; dynamic viscosity ([2]; at 6° C., (pre)treatment containing 5.6 M (PT1)): 23 mPa·s"
"Cc1cccc(C(=O)[O-])c1O.[Na+] [PT21, 3-Methyl Salicylic acid Sodium salt]",–,–,"Vitamin D release in a patient serum sample ([3]; 450 mM formic acid/0.7 M versus 0 mM formic acid/2.3 M): comparable Vitamin D release; analyte recovery compared with 5.6 M Salicylic acid sodium salt (PT1) ([3]; optimized pretreatment: 2.3 M, 35/65 (v/v) methanol/0.01 M PBS, 0% FA, Sodium salt): comparable to the recovery with salicylic acid sodium salt; recovery of Vitamin D metabolites (25-OH D3, 25-OH D2, 24R,25-di-OH D3, 24R,25-di-OH D2) ([1]; FIGS. 2 to 5, Sodium salt): Highest recoveries; also recorded: highest analyte recovery; recovery of Vitamin D metabolites (25-OH D3, 25-OH D2, 24R,25-di-OH D3, 24R,25-di-OH D2) ([1]; FIGS. 2 to 5, listed as 3-methylsalicylic acid sodium salt, Sodium salt): highest analyte recovery; dynamic viscosity ([2]; at 6° C., 2.3 M dissolved in 35/65 MeOH/0.01 M PBS (v/v)): 8.3 mPa·s"
"COC(=O)c1ccc(O)cc1.[Na] [PT8, Methylparaben Sodium]",–,Lowest recoveries,–
"O=C(O)c1cccc(O)c1 [PT5, 3-Hydroxybenzoic acid]",50 mM,Highest recoveries,–
